Assay results as given in patent US4528392A, “Aromatic compounds as antiallergic agents” (American Home Products Corporation, priority 1984, dated 1985).

Assays:
[1] = tested on: synthesis of 5-HETE by rat glycogen-elicited polymorphonuclear leukocytes (lipoxygenase); test: inhibition of 5-HETE synthesis by rat glycogen-elicited polymorphonuclear leukocytes; format: cell-based, rat (female Wistar); conditions: Leukocyte, read-out: 50% Inhibitory Concentration (IC50) 5-HETE; rat peritoneal PMN, A23187 10 μM, [14C]arachidonic acid, 10 min preincubation at 37° C.
Method: (§1) Roy. […] Med., 74, 831 (1981)]. […] The assay is carried out as follows: Peritoneal PMN are obtained from female Wistar rats (150-250 g) that received an i.p. injection of 6% glycogen (10 ml). After 24 hours, rats are killed by CO2 asphyxiation and peritoneal cells are harvested by peritoneal lavage using Ca^++ and Mg^++ free Hanks' balanced salt solution (HBSS). The peritoneal exudate is centrifuged at 400 g for 10 minutes. […] To 1 ml portions of cell suspension, test drugs or vehicle are added and incubated at 37° C. for 10 minutes. […] The reaction is stopped by the addition of ice cold water (3 ml) and acidifying to pH 3.5. Lipoxygenase products are then extracted twice into diethyl ether.

[2] = tested on: synthesis of LTB4 by rat glycogen-elicited polymorphonuclear leukocytes (lipoxygenase); test: inhibition of LTB4 (5,12-diHETE) synthesis by rat glycogen-elicited polymorphonuclear leukocytes; format: cell-based, rat (female Wistar); conditions: Leukocyte, read-out: 50% Inhibitory Concentration (IC50) LTB4; rat peritoneal PMN, A23187 10 μM, [14C]arachidonic acid, 10 min preincubation at 37° C.
Method: as §1

[3] = tested on: LTD4 induced bronchoconstriction; test: in vivo inhibition of bronchospasm induced in guinea pigs by exogenously administered leukotriene (LTD4); set-up: species or system guinea pig (male Hartley); conditions: 50 mg/kg intraduodenal, 10 minutes before induction of bronchospasm by LTD4
Method: The assay of this Example measures the in vivo ability of the compounds of the invention to inhibit the bronchospasm induced in guinea pigs by the exogenously administered leukotrienes C4 and/or D4. This assay is essentially a measure of the SRS-A antagonist properties of the compounds tested.
This assay is carried out as follows:
Male Hartley strain guinea pigs (350-600 g) are anesthetized with pentobarbital sodium (50 mg/kg, i.p.). The jugular vein is cannulated for injection of drugs and the carotid artery for monitoring blood pressure. The trachea is cannulated for artificial ventilation by a miniature Starling pump and for indirect measurement of respiratory volume changes as described infra. Additional pentobarbital sodium (15 mg/kg, i.v.) is administered to arrest spontaneous respiration. Submaximal bronchoconstrictor responses are established in control animals by varying the dose-levels of leukotriene. Intravenous dose-levels for LTC4 range from 1 to 2 μg/kg and for LTD4 the range is from 0.3 to 1 μg/kg. The aerosol bronchoprovocation dose for LTC4 is generated from 1.6 μM solution and for LTD4 from a 2.0 μM solution.
Test drugs are administered either intravenously, intraduodenally, by aerosol or orally at 1 or 10 minutes before induction of bronchospasm by administration of either LTC4 or LTD4 at the predetermined dose-levels. Aerosols of soluble drugs or leukotrienes are produced in-line for 10 seconds only by actuation of an ultrasonic nebulizer (Monaghan). Aerosolized drug dosage is expressed in terms of solution concentration and by a fixed aerosol exposure time (approximately 10 seconds). Control animals receive saline in place of drug.
Respiratory volume changes are determined by a calibrated piston whose travel is recorded, via a linear transducer, on a Beckman Dynograph recorder. Maximal bronchoconstrictor volume is determined by clamping off the trachea at the end of the experiment. Overflow volumes at 1, 3 and 5 minutes are obtained from the recorded charts.
The overflow volume at 1, 3 and 5 minutes is expressed as a percentage of maximal bronchoconstriction. […]

[4] = tested on: ovalbumin induced bronchospasm mediated by endogenous products of the lipoxygenase oxidation of arachidonic acid; test: in vivo inhibition of ovalbumin induced bronchospasm in guinea pigs by endogenous mediators; set-up: species or system guinea pig (male Hartley); conditions: 50 mg/kg intraduodenal, 10 minutes before ovalbumin challenge, indomethacin and chlorpheniramine pretreated
Method: The assay of this Example measures the in vivo ability of the compounds of the invention to inhibit the bronchospasm induced in guinea pigs by endogenous mediators of the bronchoconstriction.
The assay is carried out as follows:
Male Hartley strain guinea pigs weighing 350-600 g are sensitized to ovalbumin (OA) (5 mg i.p. and 5 mg s.c.) on day 0. Three to five weeks later, the animals are anesthetized with pentobarbital sodium (50 mg/kg, i.p.). The jugular vein is cannulated for injection of drugs and the carotid artery for monitoring blood pressure. The trachea is cannulated for artificial ventilation by miniature Staring pump and for indirect measurement of respiratory volume changes as described, infra. Additional pentobarbital sodium (15 mg/kg, i.v.) is administered to arrest spontaneous respiration. A cyclooxygenase inhibitor, indomethacin (10 mg/kg in tris buffer, i.v. at 9 min.) is administered to shunt arachidonic metabolism to lipoxygenase pathways. One minute later, chlorpheniramine (1.0 mg/kg in saline, i.v.) is given to attenuate the histaminic component of anaphylactic bronchoconstriction. Test drugs are administered either intravenously, intraduodenally or by aerosol at 2 or 10 minutes before antigen challenge. Anaphylactic bronchoconstriction is induced by administration of aerosolized OA (1%). Aerosols of OA or soluble drug are produced in-line for 10 seconds only by actuation of an ultrasonic nebulizer (Monaghan). Aerosolized drug dosage is expressed in terms of solution concentration and by a fixed aerosol exposure time (approximately10 seconds). Control animals receive saline in place of drug.
Respiratory volume changes are determined by a calibrated piston whose travel is recorded, via a linear transducer, on a Beckman Dynograph recorder. Maximal bronchoconstrictor volume is determined by clamping off the trachea at the end of the experiment. Overflow volumes at minutes 1, 3 and 5 are obtained from the recorded charts.
The overflow volume at 1, 3 and 5 minutes is expressed as a percentage of maximal bronchoconstriction. Combined group values are used from each of these time intervals to determine the inhibitory effect of drugs. [formula] Students t-test for unpaired data is used to determine statistical significance. Dose response curves are generated and ED50 doses are interpolated from the regression lines.
The results for three compounds of the invention, with administration of the compounds at 10 minutes before ovalbumin challenge are presented below: […]

Compound	IC50 [1] [µM]	IC50 [2] [µM]	% Inhibition Overflow Volume at 1 min. ([3]; 1 min.) [%]	% Inhibition Overflow Volume at 3 min. ([3]; 3 min.) [%]	% Inhibition Overflow Volume at 5 min. ([3]; 5 min.) [%]	% Inhibition Overflow Volume at 1 min. [4] [%]	% Inhibition Overflow Volume at 3 min. [4] [%]	% Inhibition Overflow Volume at 5 min. [4] [%]
NC1=NN(c2cccc(C(F)(F)F)c2)CC1 [BW755C, reference compound]	43	30	–	–	–	–	–	–
COC(=O)CC(=O)Nc1cccc(COc2ccc(C(C)=O)c(O)c2)c1 [Example 1, 3-[[3-[(4-acetyl-3-hydroxyphenoxy)methyl]phenyl]amino]-3-oxopropanoic acid, methyl ester]	14.2	11.7	25	48	56	99	77	63
COC(=O)CCC(=O)Nc1cccc(COc2ccc(C(C)=O)c(O)c2)c1 [Example 2, 4-[[3-[(4-acetyl-3-hydroxyphenoxy)methyl]phenyl]amino]-4-oxobutanoic acid, methyl ester]	–	–	–	–	–	93	24	35
COC(=O)CC(=O)Nc1cccc(COc2ccc(C(C)=O)c(OC)c2)c1 [Example 4, 3-[[3-[(4-acetyl-3-methoxyphenoxy)methyl]phenyl]amino]-3-oxopropanoic acid, methyl ester]	–	–	–	–	–	88	67	46
CCCCCC(=O)c1ccc(OCc2cccc(NC(=O)CCC(=O)OC)c2)cc1OC [Example 6c, 4-[[3-[[3-methoxy-4-(1-oxohexyl)phenoxy]methyl]phenyl]amino]-4-oxobutanoicacid, methyl ester]	3.71	3.87	–	–	–	–	–	–
CCc1ccc(OCc2cccc(NC(=O)CCC(=O)OC)c2)cc1OC [Example 7, 4-[[3-[(4-ethyl-3-methoxyphenoxy)methyl]phenyl]amino]-4-oxobutanoic acid, methyl ester]	5.6	7.09	–	–	–	–	–	–
CCCCCCc1ccc(OCc2cccc(NC(=O)CC(=O)OC)c2)cc1OC [Example 8b, 3-[[3-[(4-hexyl-3-methoxyphenoxy)methyl]phenyl]amino]-3-oxopropanoic acid, methyl ester]	1.59	1.7	–	–	–	–	–	–
